This note sets out measurements from patent publication US5789422A, “Substituted arylalkylamines as neurokinin antagonists” (Schering Corporation, priority 1996, dated 1998).

Each structure is given as a SMILES string.

The target of experiment [1] is T1, human neurokinin 2 (NK2) receptor (Homo sapiens, UniProt P21452).
T1 construct: expressed in transfected cells; host or cells: CHO (Chinese hamster ovary) cells, membranes
T1 sequence (P21452 1-398): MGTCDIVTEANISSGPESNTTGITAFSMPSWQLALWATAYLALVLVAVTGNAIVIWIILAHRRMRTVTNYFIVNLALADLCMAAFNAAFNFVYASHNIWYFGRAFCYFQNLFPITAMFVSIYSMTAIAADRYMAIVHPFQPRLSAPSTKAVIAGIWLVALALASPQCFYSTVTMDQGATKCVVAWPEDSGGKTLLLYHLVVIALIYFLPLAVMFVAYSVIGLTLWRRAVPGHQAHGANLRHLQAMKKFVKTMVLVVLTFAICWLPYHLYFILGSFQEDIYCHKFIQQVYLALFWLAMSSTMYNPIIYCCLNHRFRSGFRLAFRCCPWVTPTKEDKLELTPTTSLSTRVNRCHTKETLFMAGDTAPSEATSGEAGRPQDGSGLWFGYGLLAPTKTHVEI
The experiment is described as follows: Neurokinin receptor binding assay, human NK2. The settings on record: CHO cell membranes, [3H]-Neurokinin A, read-out: % Inhibition of NK2 at a dose of 1 μM. On the procedure:
(§1) Chinese Hamster ovary (CHO) cells transfected with the coding regions for the human neurokinin 1 (NK1) of the human neurokinin 2 (NK2) receptors are grown in Dulbecco's minimal essential medium supplemented with 10% fetal calf serum, 0.1 mM non-essential amino acids, 2 mM glutamine, 100 units/ml of penicillin and streptomycin, and 0.8 mg of G418/ml at 37° C. in a humidified atmosphere containing 5% CO2.
(§2) Cells are detached from T-175 flasks with a sterile solution containing 5 mM EDTA in phosphate buffered saline. Cells are harvested by centrifugation and washed in RPMI media at […] for 5 minutes. The pellet is resuspended in Tris-HCl (pH7.4) containing 1 uM phsphoramidon and 4 ug/ml of chymostatin at a cell density of 30×10^6 cells/ml. The suspension is then homogenized in a Brinkman Polytron (setting 5) for 30-45 seconds. The homogenate is centrifuged at 800 x g for 5 min at 4° C. to collect unbroken cells and nuclei. The supernatant is centrifuged in a Sorvall RC5C at 19,000 rpm ([…]) for 30 min at 4° C. The pellet is resuspended, an aliquot is removed for a protein determination (BCA) and washed again. The resulting pellet is stored at -80° C.
(§3) To assay receptor binding, 50 μl of [^3 H]-Substance P (9-Sar, 11-Met) (specific activity 41 Ci/mmol) (Dupont-NEN) (0.8 nM for the NK-1 assay) or [^3 H]-Neurokinin A (specific activity 114 Ci/ mmole) (Zenca) (1.0 nM for the NK-2 assay) is added to tubes containing buffer (50 mM Tris-HCl (pH 7.4) with 1 mM MnCl2 and 0.2% Bovine Serum Albumin) and either DMSO or test compound. Binding is initiated by the addition of 100 μl of membrane (10-20 μg) containing the human NK-1 or NK-2 receptor in a final volume of 200 μl. After 40 minutes at room temperature, the reaction is stopped by rapid filtration onto Whatman GF/C filters which have been presoaked in 0.3% polyethylenimine. Filters are washed 2 times with 3 ml of 50 mM Tris-HCl (pH7.4). Filters are added to 6 mls of Ready-Safe liquid scintillation cocktail and quantified by liquid scintillation spectrometry in a LKB 1219 RackBeta counter. Non-specific binding is determined by the addition of either 1 μM of CP-99994 (NK-1) or 1 μM SR-48968 (NK-2) (both synthesized by the chemistry department of Schering-Plough Research Institute). IC50 values are determined from competition binding curves and Ki values are determined according to Cheng and Prusoff using the experimentally determined value of 0.8 nM for the NK-1 receptor and 2.4 nM for the NK-2 receptor.
(§4) % Inhibition is the difference between the percent of maximum specific binding (MSB) and 100%. The percent of MSB is defined by the following equation, wherein "dpm" is disintegrations per minute: [formula]

Experiment [2] concerns the target T2, human neurokinin 1 (NK1) receptor (Homo sapiens, UniProt P25103).
T2 construct: expressed in transfected cells; host or cells: CHO (Chinese hamster ovary) cells, membranes
The experiment is described as follows: Neurokinin receptor binding assay, human NK1. The settings on record: CHO cell membranes, [3H]-Substance P, read-out: % Inhibition of NK1 at a dose of 1 μM. On the procedure:
as §1, §2, §3, §4

T2 sequence (P25103 whole entry): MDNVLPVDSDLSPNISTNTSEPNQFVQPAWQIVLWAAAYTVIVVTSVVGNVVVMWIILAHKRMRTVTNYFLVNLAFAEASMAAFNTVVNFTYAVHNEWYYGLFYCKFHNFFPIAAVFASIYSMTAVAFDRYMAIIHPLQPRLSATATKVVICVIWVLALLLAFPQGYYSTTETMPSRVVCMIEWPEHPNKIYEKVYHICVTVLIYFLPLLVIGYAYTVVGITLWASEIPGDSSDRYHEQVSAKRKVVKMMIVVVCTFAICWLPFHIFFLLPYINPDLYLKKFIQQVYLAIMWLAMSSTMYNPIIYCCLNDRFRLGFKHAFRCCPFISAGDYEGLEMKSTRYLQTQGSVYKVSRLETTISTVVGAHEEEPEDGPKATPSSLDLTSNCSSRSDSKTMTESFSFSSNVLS

The inhibition is the percentage by which the read-out fell short of the control. As for `CN(C[C@H](c1ccc(Cl)c(Cl)c1)[C@@H](O)CN1CCC(O)(c2ccccc2)CC1)C(=O)c1ccccc1` (relative stereo) [Example 2], the inhibition at 1 µM was determined as 88% in experiment [1] and 81% in experiment [2].
Turning to `CN(C[C@H](c1ccc(Cl)c(Cl)c1)[C@@H](CN1CCC(O)(c2ccccc2)CC1)OCc1cc(C(F)(F)F)cc(C(F)(F)F)c1)C(=O)c1ccccc1` (relative stereo) [Example 19], the inhibition at 1 µM in experiment [1] was 18%; in experiment [2] it was 78%.
Taken in the same sequence, the figures for `COC(CN1CCC(O)(c2ccccc2)CC1)C(CNC(=O)OC(C)(C)C)c1ccc(Cl)c(Cl)c1` (stereo not shown) [Example 12] were 68% and 9%.
Take `CN(CC(C(=O)CN1CCC(O)(c2ccccc2)CC1)c1ccc(Cl)c(Cl)c1)C(=O)c1ccccc1` (stereo not shown) [Example 16]: the inhibition at 1 µM in experiment [1] is 96%; in experiment [2] it was 23%.
Taken in the same sequence, the figures for `CON=C(CN1CCC(O)(c2ccccc2)CC1)C(CN(C)C(=O)c1ccccc1)c1ccc(Cl)c(Cl)c1` (stereo not shown) [Example 18] were 15% and 1%.
